Test results published in patent US5977130A, “Intimal hypertrophy inhibitors” (Taiho Pharmeutical Co., Ltd., priority 1996, dated 1999).
Counter-ions that a name gives are not always drawn.

Tested on: intimal hypertrophy
Test: Intimal Hypertrophy Inhibiting Activity in Rats, test (1): balloon denudation of thoracic aorta
Type: in vivo, male S.D. rats
Conditions: Rattus norvegicus, 336 h, Dose 30 mg/kg, oral once a day, 14 days after denudation, read-out: Inhibition (%) of intimal hypertrophy (intima/media thickness ratio)
Method: (§1) Pharmacological Test (Intimal Hypertrophy Inhibiting Activity in Rats)
(§2) By use of various compounds which serve as active ingredients of the present invention, the following tests (1) and (2) were performed in accordance with the method described in Journal of Clinical Investigation,85 (1990) 2004.
Groups of 14- to 15-week-old male S.D. rats were used. A 3F balloon catheter was inserted in each rat, under etherification, through the right iliac artery to the aorta. While the balloon was inflated, the endothelium of the thoracic aorta was denuded. Subsequently, the balloon catheter was removed, and an antibiotic was added dropwise into the abdominal cavity, followed by saturing. Each drug was suspended in 0.5% methylcellulose, and a dose of 10 ml/kg was orally administered once a day, starting from 2 hours after denudation. To the controls were administered 0.5% methylcellulose.
The rats were sacrificed 14 days after denudation. The thoracic aorta was removed and fixed with 10% neutrally-buffered formalin. Six segments cut out from the lower part of each sample were processed by a customary method to thereby prepare paraffin sections. Six specimens of the sections from each rat were stained with hematoxylin-eosin. The thickness of the neoplastic intima at the site of maximal hypertrophy and that of the media at the same site were measured, and the ratio of intimal thickness to media thickness was calculated. Assessment was performed in terms of percentage of intimal hypertrophy inhibition as determined from the intima/media thickness ratios, using as standards the data from the groups to which drugs had not been administered.
The following four different compounds (a)-(d) were used as comparative compounds: […]
With `COc1ccc(C(=C2C(=O)Nc3ccccc32)c2ccc(OC)cc2)cc1` [Compound 1, 3-[bis(4-methoxyphenyl)methylene]-oxindole] the inhibition in vivo at 30 mg/kg was 33.2%. For `Cc1ccc(C(=C2C(=O)Nc3ccccc32)c2ccc(C)cc2)cc1` [Compound 2], the inhibition in vivo at 30 mg/kg was 36.5%. `O=C1Nc2ccccc2C1=C(c1ccc(O)cc1)c1ccc(O)cc1` [Compound 5] showed an inhibition in vivo at 30 mg/kg of 14.8%. `CN(C)CCOc1ccc(C(=C2C(=O)Nc3ccccc32)c2ccc(OCCN(C)C)cc2)cc1` [Compound 6] showed an inhibition in vivo at 30 mg/kg of 14.7%. `O=C1Nc2ccccc2C1=C(c1ccccc1)c1ccccc1` [Compound 7] showed an inhibition in vivo at 30 mg/kg of 34.2%. `COc1ccc(C(=C2C(=O)Nc3cccnc32)c2ccc(OC)cc2)cc1` [Compound 8] gave an inhibition in vivo at 30 mg/kg of 28.9%. `CCOC(=O)c1ccc2c(c1)C(=C(c1ccc(C)cc1)c1ccc(C)cc1)C(=O)N2` [Compound 9] showed an inhibition in vivo at 30 mg/kg of 26.6%. `COc1ccc(C(=C2C(=O)Nc3ccc(N(C)C)cc32)c2ccc(OC)cc2)cc1` [Compound 10] showed an inhibition in vivo at 30 mg/kg of 14.8%. Work on `Cc1ccc(C(=C2C(=O)Nc3cc(N)ccc32)c2ccc(C)cc2)cc1` [Compound 13] yielded an inhibition in vivo at 30 mg/kg of 10.9%. `COc1ccc(C(=C2C(=O)N(CCN(C)C)c3ccccc32)c2ccc(OC)cc2)cc1` [Compound 16, 1-dimethylaminoethyl-3-[bis(4-methoxyphenyl)methylene]oxindole.HCl] gave an inhibition in vivo at 30 mg/kg of 21.1%. `COc1ccc(C(=C2C(=O)N(C)c3ccccc32)c2ccc(OC)cc2)cc1` [Compound 17] showed an inhibition in vivo at 30 mg/kg of 20.9%. Compound `CCOC(=O)CN1C(=O)C(=C(c2ccc(OC)cc2)c2ccc(OC)cc2)c2ccccc21` [Compound 18] has an inhibition in vivo at 30 mg/kg of 34.8%. For `COc1ccc(C(=C2C(=O)N(CC(=O)N(C)C)c3ccccc32)c2ccc(OC)cc2)cc1` [Compound 20], the inhibition in vivo at 30 mg/kg was 7.2%. Work on `CCOC(=O)CCCCCN1C(=O)C(=C(c2ccc(OC)cc2)c2ccc(OC)cc2)c2ccccc21` [Compound 22] yielded an inhibition in vivo at 30 mg/kg of 28%. For `COC(=O)c1ccc(CN2C(=O)C(=C(c3ccc(OC)cc3)c3ccc(OC)cc3)c3ccccc32)cc1` [Compound 24], the inhibition in vivo at 30 mg/kg was 35.1%. Work on `COc1ccc(C(=C2C(=O)N(S(=O)(=O)c3ccc(C)cc3)c3ccccc32)c2ccc(OC)cc2)cc1` [Compound 25, 1-paratoluenesulfonyl-3-[bis(4-methoxyphenyl)methylene]oxindole] yielded an inhibition in vivo at 30 mg/kg of 7.6%. `COc1ccc(C(c2ccc(OC)cc2)C2C(=O)Nc3ccccc32)cc1` (stereo not shown) [Compound 27, 3-[bis(4-methoxyphenyl)methyl]oxindole] showed an inhibition in vivo at 30 mg/kg of 19.7%. In the case of `Cc1ccc(C(c2ccc(C)cc2)C2C(=O)Nc3ccccc32)cc1` (stereo not shown) [Compound 28], the inhibition in vivo at 30 mg/kg is reported as 28.4%. With `COc1ccc(C=C2C(=O)Nc3ccccc32)cc1` [Compound 31, 3-(4-methoxybenzylidene)-oxindole] the inhibition in vivo at 30 mg/kg was 40%. Work on `COc1cc(C=C2C(=O)Nc3ccccc32)cc(OC)c1O` [Compound 32] yielded an inhibition in vivo at 30 mg/kg of 34%. In the case of `COc1ccc(/C=C/C(=O)Nc2ccccc2C(=O)O)cc1OC` [a, Tranilast, reference compound], the inhibition in vivo at 30 mg/kg is reported as 7.1%. `CC(C)c1cc(C=C2C(=O)Nc3ccccc32)cc(C(C)C)c1O` [b, reference compound] gave an inhibition in vivo at 30 mg/kg of -26%. In the case of `CON1C(=O)C(=Cc2cc(C(C)(C)C)c(O)c(C(C)(C)C)c2)c2ccc(Cl)cc21` [c, reference compound], the inhibition in vivo at 30 mg/kg is reported as -8.6%. In the case of `O=C1Nc2ccc(O)cc2C1=Cc1cc2ccccc2[nH]1` [d, reference compound], the inhibition in vivo at 30 mg/kg is reported as -0.1%.

Same assay, conditions: Rattus norvegicus, 336 h, Dose 100 mg/kg, oral once a day, 14 days after denudation, read-out: Inhibition (%) of intimal hypertrophy (intima/media thickness ratio)
`COc1ccc(C(=C2C(=O)Nc3ccccc32)c2ccc(OC)cc2)cc1` [Compound 1, 3-[bis(4-methoxyphenyl)methylene]-oxindole] gave an inhibition in vivo at 100 mg/kg of 46.6%. In the case of `Cc1ccc(C(=C2C(=O)Nc3ccccc32)c2ccc(C)cc2)cc1` [Compound 2], the inhibition in vivo at 100 mg/kg is reported as 42.3%. In the case of `COc1ccc(/C=C/C(=O)Nc2ccccc2C(=O)O)cc1OC` [a, Tranilast, reference compound], the inhibition in vivo at 100 mg/kg is reported as 18.1%.

Tested on: intimal hypertrophy
Test: Intimal Hypertrophy Inhibiting Activity in Rats, test (2): balloon denudation of left carotid artery
Type: in vivo, male S.D. rats
Conditions: Dose 30 mg/kg, oral once a day, 14 days after denudation
Method: as §1, §2
Groups of 13- to 14-week-old male S.D. rats were used. A 2F balloon catheter was inserted in each rat under etherification through the right iliac artery to the left carotid artery. While the balloon was inflated, the endothelium of the left caroid artery was denuded. Subsequently, the balloon catheter was removed, and an antibiotic was added dropwise into the abdominal cavity, followed by saturing. Each drug was suspended in 0.5% methylcellulose, and a dose of 10 ml/kg was orally administered once a day, starting from 2 hours after denudation. To the controls were administered 0.5% methylcellulose.
The rats were sacrificed 14 days after denudation The left carotid artery was removed and fixed, through perfusion, with 10% buffered formalin. Each sample was divided into six segments and the segments were processed by a customary method to thereby prepare paraffin sections. Six specimens of the sections from each rat were stained with hematoxylin-eosin. The area of the neoplastic intima and that of the media were measured, and assessment was performed in terms of percentage of intimal hypertrophy inhibition as determined from the intima/media area ratios, using as standards the data from the groups to which drugs had not been administered.
With `Nc1ccc(C(=C2C(=O)Nc3ccccc32)c2ccc(N)cc2)cc1` [Compound 33, 3-[bis(4-aminophenyl)methylene]-oxindole] the “Inhibition (%) of intimal hypertrophy (intima/media area ratio)” value (shortened to “Inhibition (%) … (intima/media area ratio)”) was 32.7%. With `O=C1Nc2ccccc2C1=C(c1ccccn1)c1ccccn1` [Compound 35, 3-(di-2-pyridylmethylene)-oxindole] the “Inhibition (%) … (intima/media area ratio)” value was 36.8%. With `O=C1Nc2ccccc2C1=Cc1ccccn1` [Compound 38] the “Inhibition (%) … (intima/media area ratio)” value was 42.0%.

Tested on: intimal hypertrophy
Test: not given
Conditions: background statement; cited from earlier work
For `COc1ccc(/C=C/C(=O)Nc2ccccc2C(=O)O)cc1OC` [a, Tranilast, reference compound], the “activity as intimal hypertrophy inhibitor” value is given as “weak activity”.
